In patent US11154057B2, “Use of nootkatone to treat mosquito infestations” (EVOLVA SA, priority 2016, dated 2021):

Test system: Aedes aegypti pupae
Assay: Prevention of adult emergence (eclosion) from pupae (Example No. 7)
Format: in vivo
Conditions: for Dead adults, total number / Dead pupae, total number / live adults, total number / live pupae, total number: 0.015% NK/0.5% EtOH in water
Protocol: Eggs of Aedes aegypti were purchased from a commercial supplier. They were hatched in sterile MilliQ water and fed with finely ground Tetramin® fish food until they developed into pupae.
Clean, glass 600 mL beakers were washed and thoroughly rinsed prior to use as test containers. On each of four testing days, pupae were removed from dishes used to grow larvae. Replicates of 10 pupae each were randomly assigned to glass beakers in a volume of 100 mL of sterile MilliQ water, and a treatment of nootkatone (see “Treatments” below), or a control treatment of ethanol alone, was added. The beakers were then covered lightly with Kimwipes, secured by rubber bands to prevent escape of adults. […]
An aliquot of 0.5 mL of a 3% solution (w/v) of nootkatone in 100% ethanol was added to treatment beakers to obtain a final concentration of 0.015% nootkatone/0.5% ethanol. Control beakers received 0.5 mL of 100% ethanol, to obtain a final concentration of 0.5% ethanol.

[1] = 0.015% nootkatone/0.5% ethanol, after 48 hours, of 150 pupae

For C=C(C)[C@@H]1CCC2=CC(=O)C[C@@H](C)[C@]2(C)C1 [Nootkatone, nootkatone], the “Dead adults, total number” value (2 DAT (48 hours), of 150 pupae) was 47, the “Dead pupae, total number” value (2 DAT (48 hours), of 150 pupae) was 103 and the “live adults, total number” value (2 DAT (48 hours), of 150 pupae) was 0. For the same compound, the “live pupae, total number” value (2 DAT (48 hours), of 150 pupae) was 0, the “Dead adults, total number” value (24 hr, of 150 pupae) was 31 and the “Dead pupae, total number” value (24 hr, of 150 pupae) was 31. The “live adults, total number” value (24 hr, of 150 pupae) was 0, the “live pupae, total number” value (24 hr, of 150 pupae) was 88 and the survivors (0.015% nootkatone/0.5% ethanol (v/v) in water, after 48 hours) was “no survivors”. For the same compound, the “share of pupae that died as pupae” value [1] was 68.7% and the “share of pupae that metamorphosed but died during eclosing” value [1] was 31.3%.
